The test has as its system Plasmodium falciparum 3D7. Put plainly: SYBR Green assay, growth inhibition of Plasmodium falciparum cultured in vitro. Format: cell-based. On the procedure:
Plasmodium falciparum in the ring stage was synchronized. Smearing was carried out and the infection rate was counted. The synchronized parasitized red blood cells, healthy red blood cells and mediums were matched in a reasonable ratio, resulting in an in vitro culture system of plasmodia (ring bodies, 2 to 4 hours-old) with a hematocrit of 2% and an infection rate of 1%. […] A1-A10 was paved with 25 µl of drugs (with 8 complex wells for each drug) and mixed evenly, and then diluted in multiple proportions (Ax-Hx). Except for A12-H12, 50 µL of a plasmodium culture solution was spread in all the other wells; and A12-H12 was spread with 50 µl of healthy red blood cells (in the medium with a hematocrit of 2%). […] 100 µl of a lysis buffer was added to each of the wells and put into a drawer to avoid light for 1 h.
In this experiment, SYBR Green assay was used to determine the median inhibitory concentration (IC50) value of the drug for treating Plasmodium falciparum 3D7. Nonlinear regression was used to calculate the value by means of software graphpad prism 8.0 (the value was equal to average value plus or minus standard error), and a four-parameter logistic fitting curve was used. Each value in the curve was equal to average value plus or minus standard error in eight biological repetitive experiments.

Where [1] appears, read: Plasmodium falciparum standard strain 3D7, cultured for 72 h, read-out: IC50.

Like-named read-outs stand apart in the source and are kept apart here.

In the case of `Cc1nc(C)c(COC(=O)C2CCN(CC(=O)OC3OC4OC5(C)CCC6C(C)CCC(C3C)C46OO5)CC2)nc1C` [Compound Ia-9, (3,5,6-trimethylpyrazine-2-yl) methyl 1-(2-oxy-2-(((3R, 5aS, 6R, 9R, 10S, 12R, 12aR)-3,6,9-trimethyldecahydro-12H-3, 12-epoxy [1, 2]dioxacycloheptane-10-yl)oxy)ethyl) piperidine-4-formate], for the setting “Plasmodium falciparum, 3D7, 72 h”, the 50% inhibitory concentration (IC50) was found to be 32.7 nM.
As for `C[C@@H]1CC[C@H]2[C@@H](C)C(=O)O[C@@H]3O[C@@]4(C)CC[C@@H]1[C@]32OO4` [artemisinin, reference compound], the IC50 (Plasmodium falciparum, 3D7, standard antimalarial drug given for comparison, source of the value not stated, read-out: IC50) was around 11.8 nM.
Take `OC(c1cc(C(F)(F)F)nc2c(C(F)(F)F)cccc12)C1CCCCN1` (stereo not drawn) [mefloquine, reference compound]: the concentration for half-maximal inhibition (IC50) (Plasmodium falciparum, 3D7, standard antimalarial drugs given for comparison, source of the values not stated, read-out: IC50) is around 3.96 nM.
In the case of `Cc1nc(C)c(COC(=O)CCCCCCC(=O)OC2OC3OC4(C)CCC5C(C)CCC(C2C)C35OO4)nc1C` [Compound Ia-7, (3R, 5aS, 6R, 9R, 10R, 12R, 12aR)-3,6,9-trimethyldecahydro-12h-3, 12-epoxy [1, 2] dioxopyran [4,3-i] isobenzopyran-10-yl ((3,5,6-trimethylpyrazine-2-yl)methyl) suberate], under setting [1], the concentration for half-maximal inhibition (IC50) stood at 50.7 nM.
For `Cc1nc(C)c(COC(=O)CC(=O)OC2OC3OC4(C)CCC5C(C)CCC(C2C)C35OO4)nc1C` [Compound Ia-2, (3R, 5aS, 6R, 9R, 10R, 12R, 12aR)-3,6,9-trimethyldecahydro-12h-3, 12-epoxy [1, 2] dioxopyran [4,3-i] isobenzopyran-10-yl ((3,5,6-trimethylpyrazine-2-yl)methyl) malonate], the IC50 under setting [1] was 12.5 nM.
As to `Cc1nc(C)c(COCCOC2OC3OC4(C)CCC5C(C)CCC(C2C)C35OO4)nc1C` [Compound Ia-8, 2,3,5-trimethyl-6-[(2-(((3R, 5aS, 6R, 9R, 12R, 12aR)-3,6,9-trimethylbicyclo [3.2.1]heptane-12H-3, 12-epoxide [1, 2]dioxacycloheptane [4,3-i]isochromene-10-yl)oxy)ethoxy)methyl] pyrazine], under setting [1], the half-inhibitory concentration (IC50) came out at 107 nM.

The term IC50 denotes the midpoint of a concentration-inhibition curve.

These data come from patent publication EP4810498A1, “MEDICATION FOR TREATING SEVERE MALARIA AND SYNTHESIS METHOD THEREFOR” (Institute of Chinese Materia Medica, China Academy of …, priority 2023, dated 2025).
